Assay results from patent US11304946B2, “2-hetarylpyrimidine-4-carboxamides as aryl hydrocarbon receptor antagonists” (Bayer Aktiengesellschaft, priority 2017, dated 2022).

Assays:
[1] = target: T1, Mouse AhR (Mus musculus, UniProt P30561); assay: Transactivation assay in mouse cell line (in vitro assay 2: antagonism); format: cell-based; settings: Hepa 1c1c7 cells, AHR inducible (DRE) firefly luciferase reporter, 200 μM kynurenic acid, 20 hours
T1 sequence (P30561 1-848): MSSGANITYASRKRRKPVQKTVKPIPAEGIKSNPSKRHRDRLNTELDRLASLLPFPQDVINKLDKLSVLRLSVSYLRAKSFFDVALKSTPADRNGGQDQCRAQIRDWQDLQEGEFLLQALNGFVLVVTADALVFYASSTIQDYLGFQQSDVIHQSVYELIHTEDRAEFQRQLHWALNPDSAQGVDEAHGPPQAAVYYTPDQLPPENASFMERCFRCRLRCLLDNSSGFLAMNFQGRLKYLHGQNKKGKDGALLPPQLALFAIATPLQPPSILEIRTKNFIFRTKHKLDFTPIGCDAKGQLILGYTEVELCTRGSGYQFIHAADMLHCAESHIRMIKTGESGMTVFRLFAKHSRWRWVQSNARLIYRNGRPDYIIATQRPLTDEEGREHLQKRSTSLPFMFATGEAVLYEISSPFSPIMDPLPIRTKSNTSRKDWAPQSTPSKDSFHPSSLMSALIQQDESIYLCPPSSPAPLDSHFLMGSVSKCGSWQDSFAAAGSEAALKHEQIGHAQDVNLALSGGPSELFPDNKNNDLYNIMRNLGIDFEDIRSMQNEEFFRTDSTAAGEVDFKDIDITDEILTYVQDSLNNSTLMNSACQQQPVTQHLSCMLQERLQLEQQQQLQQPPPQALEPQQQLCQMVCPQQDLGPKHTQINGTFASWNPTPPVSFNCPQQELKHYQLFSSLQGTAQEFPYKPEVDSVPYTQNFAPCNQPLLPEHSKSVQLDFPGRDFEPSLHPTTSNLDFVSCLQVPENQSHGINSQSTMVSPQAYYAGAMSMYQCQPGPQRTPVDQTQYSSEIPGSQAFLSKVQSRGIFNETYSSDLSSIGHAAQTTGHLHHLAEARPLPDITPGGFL
Protocol: Transactivation Assay in Mouse Cell Line (In Vitro Assay 2)
(§1) Transactivation assay was carried out in Hepa 1c1c7 cells (ATCC #CRL-2026) endogenously expressing AHR. In addition the cells were stably transfected with an AHR inducible firefly luciferase reporter gene construct that carried AHR-binding sites (DRE) in its promoter. Kynurenic acid is an endogenous AHR activating ligand and was used to prestimulate test cells prior to testing the antagonistic properties of compounds.
In Vitro Assay 2: Antagonism in Mouse Cell Line
Firefly luciferase activity was determined by the SteadyGlo Luciferase Assay System (Promega, #E2550).

[2] = target: T2, Human AhR (Homo sapiens, UniProt P35869); assay: Transactivation assay in human cell line (in vitro assay 1: antagonism); format: cell-based; settings: U87 glioblastoma cells, AHR inducible (DRE) firefly luciferase reporter, 150 μM kynurenic acid, 20 hours
T2 construct: host or cells: U87 glioblastoma cells, stably transfected with DRE-driven firefly luciferase and constitutive renilla reporter constructs
T2 sequence (P35869 11-848): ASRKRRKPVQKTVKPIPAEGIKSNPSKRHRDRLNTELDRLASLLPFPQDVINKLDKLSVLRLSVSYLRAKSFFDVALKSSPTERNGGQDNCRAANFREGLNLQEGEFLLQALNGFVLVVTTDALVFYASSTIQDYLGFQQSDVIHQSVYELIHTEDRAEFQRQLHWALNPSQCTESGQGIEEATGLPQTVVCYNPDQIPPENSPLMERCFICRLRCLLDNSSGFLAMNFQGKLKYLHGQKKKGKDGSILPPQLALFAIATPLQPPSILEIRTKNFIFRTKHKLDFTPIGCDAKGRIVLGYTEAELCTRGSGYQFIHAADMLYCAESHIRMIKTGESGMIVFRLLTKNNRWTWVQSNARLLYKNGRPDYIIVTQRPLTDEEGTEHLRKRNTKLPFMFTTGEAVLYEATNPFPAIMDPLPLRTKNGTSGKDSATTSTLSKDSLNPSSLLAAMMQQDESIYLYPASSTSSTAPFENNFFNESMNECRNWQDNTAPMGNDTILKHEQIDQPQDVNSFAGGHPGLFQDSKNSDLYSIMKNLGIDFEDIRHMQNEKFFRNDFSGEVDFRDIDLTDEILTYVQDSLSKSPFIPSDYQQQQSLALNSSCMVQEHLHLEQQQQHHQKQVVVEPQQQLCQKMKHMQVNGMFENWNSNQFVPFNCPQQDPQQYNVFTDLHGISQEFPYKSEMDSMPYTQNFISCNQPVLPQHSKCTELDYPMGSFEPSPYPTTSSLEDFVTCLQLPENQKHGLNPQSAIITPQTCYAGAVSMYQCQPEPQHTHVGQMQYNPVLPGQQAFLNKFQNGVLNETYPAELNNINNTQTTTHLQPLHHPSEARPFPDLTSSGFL
Protocol: Transactivation Assay in Human Cell Line (In Vitro Assay 1)
as §1, with “U87 glioblastoma” for “Hepa 1c1c7”, “(ATCC)” for “(ATCC #CRL-2026)”, “its promoter and a renilla reporter gene construct with constitutively active” for “its”
In Vitro Assay 1: Antagonism in Human Cell Line
Firefly luciferase and Renilla activity was determined by the DualGlo Luciferase Assay System (Promega, #2920). Renilla activity was used to assess toxic effects of compounds.

SMILES | IC50 [1] [nM] | IC50 [2] [nM]
Cn1cc(-c2nc(C(=O)N[C@H](CO)C3CC3)cc(-c3ccc(OC(F)(F)F)cc3)n2)cn1 [Example 99, N-[(1S)-1-cyclopropyl-2-hydroxyethyl]-2-(1-methyl-1H-pyrazol-4-yl)-6-[4-(trifluoromethoxy)phenyl]pyrimidine-4-carboxamide] | 21.5 | 17.6
Cn1cc(-c2nc(C(=O)N[C@H]3CCC[C@@H]3O)cc(-c3ccc(OC(F)(F)F)cc3)n2)cn1 (stereo in doubt) [Example 87, N-[(trans)-2-hydroxycyclopentyl]-2-(1-methyl-1H-pyrazol-4-yl)-6-[4-(trifluoromethoxy)phenyl]pyrimidine-4-carboxamide] | 3.93 | 5.33
CC(C)(O)CNC(=O)c1cc(-c2ccc(Cl)cc2)nc(-c2cnn(C3CC3)c2)n1 [Example 68, 6-(4-chlorophenyl)-2-(1-cyclopropyl-1H-pyrazol-4-yl)-N-(2-hydroxy-2-methylpropyl)pyrimidine-4-carboxamide] | 9830 | 7240
Cn1cc(-c2nc(C(=O)NC(CO)Cc3cccnc3)cc(-c3ccc(OC(F)(F)F)cc3)n2)cn1 (stereo not shown) [Example 93, N-[1-hydroxy-3-(pyridin-3-yl)propan-2-yl]-2-(1-methyl-1H-pyrazol-4-yl)-6-[4-(trifluoromethoxy)phenyl]pyrimidine-4-carboxamide] | 16.5 | 34.1
Cn1cc(-c2nc(C(=O)N[C@H](CO)CF)cc(-c3ccc(OC(F)(F)F)cc3)n2)cn1 [Example 95, N-[(2R)-1-fluoro-3-hydroxypropan-2-yl]-2-(1-methyl-1H-pyrazol-4-yl)-6-[4-(trifluoromethoxy)phenyl]pyrimidine-4-carboxamide] | 4 | 3.48
C[C@@H](CO)NC(=O)c1cc(-c2ccc(OC(F)(F)F)cc2)nc(-c2cnn(C)c2)n1 [Example 5, N-[(2S)-1-hydroxypropan-2-yl]-2-(1-methyl-1H-pyrazol-4-yl)-6-[4-(trifluoromethoxy)phenyl]pyrimidine-4-carboxamide] | 2.92 | 3.68
Cc1cscc1-c1nc(C(=O)N[C@@H](C)CO)cc(-c2ccc(Cl)cc2)n1 [Example 71, 6-(4-chlorophenyl)-N-[(2S)-1-hydroxypropan-2-yl]-2-(4-methylthiophen-3-yl)pyrimidine-4-carboxamide] | 4.71 | 3.23
COc1ccncc1-c1nc(C(=O)N[C@@H](C)CO)cc(-c2ccc(OC(F)(F)F)cc2)n1 [Example 40, N-[(2S)-1-hydroxypropan-2-yl]-2-(4-methoxypyridin-3-yl)-6-[4-(trifluoromethoxy)phenyl]pyrimidine-4-carboxamide] | 42.6 | 4.24
C[C@@H](CO)NC(=O)c1cc(-c2ccc(C(F)(F)F)cc2)nc(-c2cccnc2)n1 [Example 117, N-[(2S)-1-hydroxypropan-2-yl]-2-(pyridin-3-yl)-6-[4-(trifluoromethyl)phenyl]pyrimidine-4-carboxamide] | 1.33 | 1.26
C[C@@H](CO)NC(=O)c1cc(-c2ccc(Cl)cc2)nc(-c2ccc(Cl)s2)n1 [Example 72, 6-(4-chlorophenyl)-2-(5-chlorothiophen-2-yl)-N-[(2S)-1-hydroxypropan-2-yl]pyrimidine-4-carboxamide] | 98.2 | 32.6
Cn1cc(-c2nc(C(=O)N[C@@H]3COC[C@@H]3O)cc(-c3ccc(OC(F)(F)F)cc3)n2)cn1 (relative stereo) [Example 105, N-[(cis)-4-hydroxyoxolan-3-yl]-2-(1-methyl-1H-pyrazol-4-yl)-6-[4-(trifluoromethoxy)phenyl]pyrimidine-4-carboxamide] | 6.01 | 8.48
Cn1cc(-c2nc(C(=O)N[C@H]3COC[C@H]3O)cc(-c3ccc(OC(F)(F)F)cc3)n2)cn1 [Example 103, N-[(3S,4S)-4-hydroxytetrahydrofuran-3-yl]-2-(1-methyl-1H-pyrazol-4-yl)-6-[4-(trifluoromethoxy)phenyl]pyrimidine-4-carboxamide] | 5.82 | 6.74
Cc1nn(C)cc1-c1nc(C(=O)N[C@@H](C)CO)cc(-c2ccc(Cl)cc2)n1 [Example 83, 6-(4-chlorophenyl)-2-(1,3-dimethyl-1H-pyrazol-4-yl)-N-[(2S)-1-hydroxypropan-2-yl]pyrimidine-4-carboxamide] | 1510 | 54.2
C[C@H](CO)NC(=O)c1cc(-c2ccc(Cl)cc2)nc(-c2cnn(C)c2)n1 [Example 12, 6-(4-chlorophenyl)-N-[(2R)-1-hydroxypropan-2-yl]-2-(1-methyl-1H-pyrazol-4-yl)pyrimidine-4-carboxamide] | 206 | 73.4
Cc1noc(C)c1-c1nc(C(=O)N[C@@H](C)CO)cc(-c2ccc(OC(F)(F)F)cc2)n1 [Example 35, 2-(3,5-dimethyl-1,2-oxazol-4-yl)-N-[(2S)-1-hydroxypropan-2-yl]-6-[4-(trifluoromethoxy)phenyl]pyrimidine-4-carboxamide] | 5310 | 1030
O=C(N[C@H]1COC[C@@H]1O)c1cc(-c2ccc(OC(F)(F)F)cc2)nc(-c2cccnc2)n1 [Example 118, N-[(3S,4R)-4-hydroxyoxolan-3-yl]-2-(pyridin-3-yl)-6-[4-(trifluoromethoxy)phenyl]pyrimidine-4-carboxamide] | 3.4 | 2.34
C[C@@H](CO)NC(=O)c1cc(-c2ccc(OC(F)(F)F)cc2)nc(-c2ccc(C#N)s2)n1 [Example 28, 2-(5-cyanothiophen-2-yl)-N-[(2S)-1-hydroxypropan-2-yl]-6-[4-(trifluoromethoxy)phenyl]pyrimidine-4-carboxamide] | 229 | 167
C[C@H](NC(=O)c1cc(-c2ccc(OC(F)(F)F)cc2)nc(-c2cnn(C)c2)n1)C(C)(C)O [Example 102, N-[(2S)-3-hydroxy-3-methylbutan-2-yl]-2-(1-methyl-1H-pyrazol-4-yl)-6-[4-(trifluoromethoxy)phenyl]pyrimidine-4-carboxamide] | 3.26 | 6.86
CC(C)(O)CNC(=O)c1cc(-c2ccc(Cl)cc2)nc(-c2ccc(C#N)s2)n1 [Example 47, 6-(4-chlorophenyl)-2-(5-cyanothiophen-2-yl)-N-(2-hydroxy-2-methylpropyl)pyrimidine-4-carboxamide] | 961 | 317
Cc1ccc(-c2nc(C(=O)NCC(C)(C)O)cc(-c3ccc(Cl)cc3)n2)cn1 [Example 60, 6-(4-chlorophenyl)-N-(2-hydroxy-2-methylpropyl)-2-(6-methylpyridin-3-yl)pyrimidine-4-carboxamide] | 1420 | 64.7
